Assays:
PC-3 xenograft = test: PC-3 prostate cancer xenograft, Phor18-LHRH; assay type: in vivo, mice; settings: for Overall efficacy in PC-3 xenografts: mouse, in vivo
Description: PC-3 xenografts untreated cause significant weight loss in mice.
In brief, Nu/Nu male mice, outbred strain, age 6 weeks (Charles River) were injected subcutaneously with a PC-3 cells/Matrigel suspension (1×10^6 cells/mouse). Treatment was started on day 15 after tumor cell injection when the tumors were established and continued on days 22 and 29. The doses for the 3 weekly injections were 2, 0.2 and 0.02 mg/kg body weight, given as a bolus single intravenous injection via lateral tail vein.
A group of 12 tumor bearing mice was sacrificed on day 15 and served as baseline group. All mice were necropsied 35 and 36 days after tumor cell injection. Tumor volumes and bodyweights were recorded twice weekly during the study, as well as overall veterinarian examination of mice was conducted.
Primary tumors, liver, kidney, pancreas, heart, lung, and spleen were collected, fixed in formalin and prepared for histological evaluation. Tumor weights were measured at necropsy, part of the tumors were frozen at 80° C. for LH/CG and LHRH receptor assay determination.

MDA-MB 435S cells = test: In vitro kinetics of cytotoxicity (MTT), MDA-MB-435S cells; assay type: cell-based, human; settings: all cell lines presenting functional LHRH receptors (MDA-MB-435, MCF-7, OVCAR-3)
Description: Membranes of non-cancerous cell lines are neutral and are resistant to cytolytic peptides, in contrast to cancer cell lines, which have a high phosphatidic acid content in their outer membrane.
The breast cancer cell lines studied were MDA-MB-4355 (estrogen receptor alpha negative), MCF-7 and T47D (estrogen receptor alpha positive), ovarian cancer cell lines (OVCAR-3 and SKOV-3), prostate cancer (LNCaP), the non-malignant breast epithelial cell line MCF-10A and the mouse fibroblast cell line NIH:3T3.
Cells were seeded into 96 well plates at a densitiy of 10,000 cells/well. […] Controls contained USP saline or 0.1% TritonX-100™ as reference for 0 and 100% cell death, respectively. […] Cell viability was assessed through formazan conversion assay (MTT assay, (CellTiter 96 Aqueous One, Promega # G3582). Formazan conversion was determined using a BioRad Benchmark Plus microplate spectrophotometer dual wavelengths at 490/630 nm at room temperature).
Data were calculated as fraction of absorption in TritonX-100™ containing wells representing 100% cell death versus 0% cell death in saline containing wells. Cytotoxicity was determined as IC50 using GraphPad Prism version 5.01 for Windows, GraphPad Software, San Diego Calif. […] 4 wells of each individual set of two 96 well plates were compared and analyzed. Statistical analysis for significance was determined by a two-tailed Student's T-test.

MDA-MB-435S xenograft = test: MDA-MB-435S xenograft, minimal effective dose, once weekly for 3 weeks; assay type: in vivo, mice
Description: To determine the minimal effective dose necessary to reduce MDA-MB-435S xenograft weights in a single dose regimen, Nu/Nu female mice, outbred strain, age 5 weeks (Charles River), were injected (s.c.) into the interscapular region with a MDA-MB-435S (passage #249)/Matrigel suspension (2.4×10^6 cells/mouse) [Leuschner 2006].
Each group consisted of 16 mice, which were injected once a week for 3 weeks. A group of 16 mice was sacrificed at the time of treatment start to serve as baseline. Saline injections served as control groups. During the entire study tumor volumes were recorded twice weekly.
Treatment started on day 16 after tumor cell injection when the tumors were established and continued on days 23 and 30. All remaining mice were necropsied 37 days after tumor cell injection.
Treatment response was determined by tumor weights and tumor weight change at necropsy compared to saline controls and untargeted Phor18 treatment. Primary tumors were collected, weighed and prepared for histological evaluation in formalin fixation with […]. Statistical evaluation of data sets were conducted in GraphPad Prizm 4 and significance calculated by Wilcoxon signed-rank test.

OVCAR-3 xenograft = test: OVCAR-3 ovarian cancer xenograft; assay type: in vivo; settings: for Tumor weights at necropsy: Phor18-LHRH: 2 and 0.2 mg/kg vs saline and Phor18, p<0.05; for Tumor volume: during treatment
Description: The xenograft model of the OVCAR-3 human ovarian cancer cell line that present functional LHRH receptors was used in this study. OVCAR-3 represents a slow growing xenograft model and secretes the tumor marker (cancer antigen 125, or CA125). It's secretion can be used as treatment response and is a measure of drug activity.
In brief, Nu/Nu female mice, inbred strain, age 5 weeks (Harlan-Sprague Dawley) were injected subcutaneously with a NIH:OVCAR-3 cells/Matrigel suspension (4.6×10^6 cells/mouse). Treatment was started on day 33 after tumor cell injection when the tumors were established and continued on days 41 and 47. The doses for the 3 weekly injections were 0.02, 0.2 and 2 mg/kg body weight, given as a single bolus intravenous injection via lateral tail vein administered once a week for three weeks on days 33, 41 and 47. Necropsies were conducted on day 52. Data are presented as mean SEM. Arrows show dosing.
A group of 9 tumor bearing mice was sacrificed on day 33 and served as baseline group. All mice were necropsied 51-52 days after tumor cell injection. Tumor volumes and bodyweights were recorded twice weekly during the study, as well as overall veterinarian examination of mice was conducted.
Primary tumors, liver, kidney, pancreas, heart, lung, and spleen were collected, fixed in formalin and prepared for histological evaluation. Tumor weights were measured at necropsy, part of the tumors were frozen at −80° C. for LH/CG and LHRH receptor assay determination.
As a biomarker for drug activity, CA125 was determined in serum, collected from each individual mouse at necropsy using a Enzyme Linked Immunoassay for quantitative determination of ovarian cancer antigen CA125 (Assay kit Genway, Biotech, Inc. San Diego, Calif., Catalog #40-052-115009, # BC-1013 according to the manufacturer).
LHRH receptor levels were assessed from formalin fixed tumors. Quantitative immunoperoxidase image analysis was conducted with the Ventana Image Analysis System (VIAS) adjunctive computer assisted image analysis system functionally connected to an interactive microscope (Axio Imager). The quantitative analysis was conducted with the program for quantification of Her2/neu receptor that included morphometric and colorimetric analysis. Receptor status results were reported as percentage of cells showing positive staining of the LHRH receptors under the following criteria: 0 non-immunoreactive, 1+: 1-25% positive, 2+: 26 50% positive, 3+: 51-75% positive cells.

MCF-7 xenograft = test: MCF-7 breast cancer xenograft; assay type: in vivo, mice; settings: MCF-7, 2 × 3 wk, 19 d
Description: In vivo efficacy studies were conducted as monotherapy, or a combination therapy with standard of care treatments in nude mice bearing human breast cancer xenografts: MDA-MB-435S.luc (s.c.), MCF-7 (estrogen receptor alpha positive), human ovarian cancer xenografts: OVCAR-3, (s.c.), human prostate cancer xenografts: PC-3 (androgen receptor negative).
Mice were sacrificed one week after the last injection and blood collected for chemistry panel, tumor weights and body weights were recorded. Part of the tumors were fixed in PBS buffered 10% formalin for histological evaluation.

Substance	Overall efficacy in PC-3 xenografts (PC-3 xenograft)	Incubation time to maximum effect (MDA-MB 435S cells) [h]	Tumor volumes and tumor weights (MDA-MB-435S xenograft; mouse, in vivo)	Tumor weights at necropsy (OVCAR-3 xenograft)	Tumor volume (OVCAR-3 xenograft; listed as CLIP71)	Lowest concentration with tumor volume reduction compared to saline controls and CLIP71 (PC-3 xenograft; 22 days after tumor cell injection, p<0.001) [mg/kg]	Tumor weights compared to saline controls and CLIP-71 (PC-3 xenograft; all treated groups)	Tumor volume (PC-3 xenograft; during treatment)	Remarks / histological evaluation of tumors (MDA-MB-435S xenograft; hematoxylin/eosin)	Lowest dose with significant necrosis in tumors (MDA-MB-435S xenograft; mouse, in vivo) [mg/kg]	Lowest concentration with tumor volume reduction compared to baseline (OVCAR-3 xenograft; 42 days after tumor cell injection, p<0.001) [mg/kg]	Tumor volume (OVCAR-3 xenograft)	Dose with greatest tumor regression compared to treatment start (OVCAR-3 xenograft; p<0.03 vs baseline) [mg/kg]	Median Tumor Weight vs Saline P < 0.05 (dose, growth delay) (MCF-7 xenograft) [mg/kg growth]
KFAKFAK KFAKFAK KFAK [Phor18]	ineffective	24	did not decrease tumor weights or destroy tumor tissue	not effective	no reduction	–	–	–	–	–	–	–	–	–
KFAKFAKKFAKFAKKFAKQHWSYGLRPG [Phor18-LHRH]	effective in arresting tumor growth	0.5 to 1	–	Reduced tumor weights	–	0.002	significantly reduced	decreased	significant necrosis	0.0002	0.2	decreased	0.2	0.02
